According to ChEMBL document CHEMBL3272338, “Bis-basic-substituted polycyclic aromatic compounds. A new class of antiviral agents. 8. Bis-basic derivatives of carbazole, dibenzofuran, and dibenzothiophene” (1977):
Activity calls are given as the source filed them. The calls are words filed in the database; no cut-off is given here.

What was measured:
Semliki Forest virus = assay: Antiviral activity against Semliki forest virus infected in mouse; type: functional, organism-based
Vaccinia virus = assay: Antiviral activity against Vaccinia virus infected in mouse; type: functional, organism-based; conditions: Orthopoxvirus vaccinia
Influenza A virus [1] = assay: Antiviral activity against Influenza A virus A0 (Pr8) infected in mouse; type: functional, organism-based
Human alphaherpesvirus 1 [2] = assay: In vitro antiviral activity against Herpesvirus hominis type 1 infected in African green monkey Vero cells assessed as log reduction of virus titer by cytopathologic assay (reference value: 5); type: functional
[3] = test system: Encephalomyocarditis virus; assay: Antiviral activity against Encephalomyocarditis virus infected in CF-1 mouse assessed as host survival time ratio at 50 mg/kg, sc administered 28, 22, 2 hrs before and 2 hrs after virus inoculation; type: functional; conditions: route subcutaneous
Human alphaherpesvirus 1 [4] = assay: In vivo antiviral activity against Herpesvirus hominis type 1 infected in po dosed white mouse assessed as suppression of raised, blister-like lesions; type: functional, organism-based
Human alphaherpesvirus 1 [5] = assay: (§1) In vivo antiviral activity against Herpesvirus hominis type 1 infected in hairless mouse assessed as decrease in lesion score administered topically at 2, 4 and 6 hrs after virus inoculation followed by continuous treatment daily for 4 days four times a day at 2 hrs interval measured on 8th day post-infection; type: functional, organism-based
Influenza A virus [6] = assay: Antiviral activity against Influenza A virus A2 Jap/305 infected in mouse; type: functional, organism-based
[7] = test system: Encephalomyocarditis virus; assay: Antiviral activity against Encephalomyocarditis virus infected in CF-1 mouse assessed as host survival time ratio at 50 mg/kg, po administered via gavage at 28, 22, 2 hrs before and 2 hrs after virus inoculation; type: functional
Mus musculus [8] = assay: Induction of interferon induction in sc dosed mouse serum; type: functional, organism-based
[9] = test system: Encephalomyocarditis virus; assay: Antiviral activity against Encephalomyocarditis virus infected in CF-1 mouse assessed as host survival time ratio at 250 mg/kg, sc administered 28, 22, 2 hrs before and 2 hrs after virus inoculation; type: functional; conditions: route subcutaneous
[10] = test system: Encephalomyocarditis virus; assay: Antiviral activity against Encephalomyocarditis virus infected in CF-1 mouse assessed as host survival time ratio at 10 mg/kg, sc administered 28, 22, 2 hrs before and 2 hrs after virus inoculation; type: functional; conditions: route subcutaneous
Mus musculus [11] = assay: Induction of interferon induction in po dosed mouse serum; type: functional, organism-based
Human alphaherpesvirus 1 [12] = assay: as §1, with “suppression of ulcerated zoster-like lesions development” for “decrease in lesion score”; type: functional, organism-based
[13] = test system: Venezuelan equine encephalitis virus; assay: Antiviral activity against Venezuelan equine encephalitis virus infected in po dosed monkey assessed as reduction in viremia; type: functional, organism-based
[14] = test system: Encephalomyocarditis virus; assay: Antiviral activity against Encephalomyocarditis virus infected in CF-1 mouse assessed as host survival time ratio at 250 mg/kg, po administered via gavage as single dose at 22 to 28 hrs before virus inoculation; type: functional
[15] = test system: Encephalomyocarditis virus; assay: Antiviral activity against Encephalomyocarditis virus infected in CF-1 mouse assessed as host survival time ratio at 250 mg/kg, sc administered as single dose at 22 hrs before virus inoculation; type: functional; conditions: route subcutaneous

| Structure (SMILES) | Activity (Semliki Forest virus) | Activity (Vaccinia virus) | Activity (Influenza A virus [1]) | log(activity) (Human alphaherpesvirus 1 [2]) | Ratio [3] | inhibition (Human alphaherpesvirus 1 [4]) | inhibition (Human alphaherpesvirus 1 [5]) | Activity (Influenza A virus [6]) | Ratio [7] | Activity (Mus musculus [8]) | Ratio [9] | Ratio [10] | Activity (Mus musculus [11]) | inhibition (Human alphaherpesvirus 1 [12]) | inhibition [13] | Ratio [14] | Ratio [15] |
| --- | --- | --- | --- | --- | --- | --- | --- | --- | --- | --- | --- | --- | --- | --- | --- | --- | --- |
| CN(C)CC(=O)c1ccc2sc3ccc(C(=O)CN(C)C)cc3c2c1.Cl | Active | Active | Active | 2.5 | 2.29 | inactive | Active | Active | 1.75 | Active | 2.29 | 1.1 | Active | inactive | Active | 2.29 |  |
| Cl.O=C(CCCN1CCC(Cc2ccccc2)CC1)c1ccc2oc3ccc(C(=O)CCCN4CCC(Cc5ccccc5)CC4)cc3c2c1 |  |  |  |  | 1.7 |  |  |  | 1.07 |  |  | 1.27 |  |  |  | 0.98 | 1.82 |
| Cl.O=C(CCCN1CCOCC1)c1ccc2c(c1)sc1ccc(C(=O)CCCN3CCOCC3)cc12 |  |  |  |  | 1.33 |  |  |  | 0.9 |  | 1.98 | 1.13 |  |  |  | 0.94 |  |
| CCN(CC)CCOc1ccc2oc3ccc(OCCN(CC)CC)cc3c2c1.Cl |  |  |  |  | 1.31 |  |  |  | 1.17 |  | 0.91 | 1.21 |  |  |  | 1.02 |  |
| CCn1c2ccc(OCCCN(C)C)cc2c2cc(OCCCN(C)C)ccc21.Cl |  |  |  |  | 1.1 |  |  |  | 0.9 |  | 0.52 | 0.92 |  |  |  | 0.88 |  |
| CCn1c2ccc(OCCN3CCOCC3)cc2c2cc(OCCN3CCOCC3)ccc21 |  |  |  |  | 1.08 |  |  |  | 0.86 |  | 1.02 | 0.92 |  |  |  | 0.88 |  |
| Cl.O=C(CN1CCCCC1)c1ccc2oc3ccc(C(=O)CN4CCCCC4)cc3c2c1 |  |  |  |  | 1.12 |  |  |  | 0.87 |  | 2.41 | 1.11 |  |  |  | 1.41 |  |
| CCN(CC)CC(=O)c1ccc2oc3ccc(C(=O)CN(CC)CC)cc3c2c1.Cl |  |  |  |  | 1.35 |  |  |  | 0.96 |  | 2.17 | 0.96 |  |  |  | 1.65 |  |
| CCN(CC)CCCOc1ccc2oc3ccc(OCCCN(CC)CC)cc3c2c1 |  |  |  |  | 0.88 |  |  |  | 0.98 |  |  | 0.98 |  |  |  | 0.92 | 1.47 |
| CN(C)CC(=O)c1ccc2oc3ccc(C(=O)CN(C)C)cc3c2c1.Cl | Active | Active |  | 2.5 | 1.64 | inactive | Active |  | 1.8 | Active | 2 | 1.13 | Active | inactive | Active | 2.2 |  |
